Measurements: patent US11446286B1 (KING FAISAL UNIVERSITY, priority 2022, dated 2022)
Converted amounts (≈) assume the structure as drawn.

Legend:
[1] = test system: C. albicans systemic infection; experiment: Systemic candidiasis mouse model; format: in vivo, mice; settings: for lung histopathology (H&E): vs non-treated infected mice; for serum levels of ALT, AST, uric acid, and creatinine: systemic candidiasis, day 7, compared with infected nontreated group (combination: also vs noninfected control)
Experimental: (§1) Four-week-old mice were obtained from Kafrelshikh university animal sourcing. Food and water were given ad libitum. The mice were handled according to the instructions and regulations of the ethics committee.
(§2) To help in the induction of fungal infection, mice were immunocompromised by Endoxan® (cyclophosphamide), injected i.v. at a dose rate of 100 mg/kg. The injection of cyclophosphamide was at three and one days before infection. Systemic candidiasis and aspergillosis were induced by intravenous injection of 0.2 ml of each cell suspension into the tail vein using 1-ml syringe and a 27-G, ½-in. needle. The C. albicans cells and Aspergillus conidia were obtained as described above. After plating, the cells were suspended in sterile saline. Each mouse received 5×10^4 blastospores. All drugs were given at a dose rate of 5 mg/kg via the oral route suspended in methylcellulose. […] Treatment was continued daily for seven days. On the seventh day, the mice were sacrificed, and blood and tissue samples were collected. Tissue samples from liver, kidney, lungs, and heart were stored in 10% formalin and fixed for histopathological and immunohistochemical examination.
(§3) Standard histopathological sections stained with hematoxylin and eosin were performed. Immunohistochemistry was performed following the instructions of the antibodies manufacturer (Theiino Scientific, Waltman, MA, USA). The antibodies comprised CD45 and CXCR4.
Serum samples from the systemic candidiasis experiments discussed above were analyzed using known techniques to detect serum levels of ALT, AST, uric acid, and creatinine.

[2] = test system: Aspergillus furnigatus (RCMB 002008); experiment: In vitro antifungal assay (agar well); format: cell-based, Aspergillus fumigatus
Experimental: (§4) In vitro studies were performed including a total of 31 fungal strains. The strains were obtained from the American Type Culture Collection (ATCC) or were isolated locally and provided by the fungal research centers at Alazhar and Assiut universities, Egypt. Dabigatran's antifungal activity was tested against 31 fungal strains, as previously described. (Johnson, T. R. and Case, C. L., “Laboratory experiments in microbiology” Pearson/Benjamin Cummings (2004)) The in vitro studies included a total of 31 fungal strains. Fungal strains were separately grown in universal tubes with 20 ml of Sabouraud's dextrose broth for 3-7 days to create inocula for antifungal tests. Bioassays were carried out in 10 cm sterile Petri dishes containing 15 ml Sabouraud's dextrose agar medium and microbial suspension. Using a sterile cork borer, 5 mm diameter cavities were bored in the solidified agar (3 cavities/plate) after the media had hardened. […] Controls were prepared using DMSO and fluconazole. Candida cultures were incubated for 72 hours at 27° C., while other fungal cultures were incubated for up to seven days.

[3] = test system: Mucor circillelloides AUMC No. 3704; experiment: In vitro antifungal assay (agar well); format: cell-based
Experimental: as §4

[4] = test system: Candida alibicans AUMC No. 9160; experiment: In vitro antifungal assay (agar well); format: cell-based; settings: 72 hours at 27° C.
Experimental: as §4

[5] = test system: Candida albicans RCMB 005003 (1) ATCC 10231; experiment: In vitro antifungal assay (agar well); format: cell-based; settings: 72 hours at 27° C.
Experimental: as §4

[6] = test system: Cryptococcus neoformans AUMC No. 2795; experiment: In vitro antifungal assay (agar well); format: cell-based
Experimental: as §4

[7] = test system: Candida lipolytica RCMB 005007; experiment: In vitro antifungal assay (agar well); format: cell-based; settings: 72 hours at 27° C.
Experimental: as §4

[8] = test system: Aspergillus fumigatus AUMC No. 14358; experiment: In vitro antifungal assay (agar well); format: cell-based
Experimental: as §4

[9] = test system: Aspergillus ustus AUMC No. 3605; experiment: In vitro antifungal assay (agar well); format: cell-based
Experimental: as §4

[10] = test system: Trichophyton rubrum AUMC No. 1804; experiment: In vitro antifungal assay (agar well); format: cell-based
Experimental: as §4

[11] = test system: Candida glabrata AUMC No. 9166; experiment: In vitro antifungal assay (agar well); format: cell-based; settings: 72 hours at 27° C.
Experimental: as §4

[12] = test system: Aspergillus terreus AUMC No. 14389; experiment: In vitro antifungal assay (agar well); format: cell-based
Experimental: as §4

[13] = test system: Aspergillus nidulans AUMC No. 14333; experiment: In vitro antifungal assay (agar well); format: cell-based
Experimental: as §4

[14] = test system: Penicillium italicum RCMB 001018 (1) IMI 193019; experiment: In vitro antifungal assay (agar well); format: cell-based
Experimental: as §4

[15] = test system: Cryptococcus neoformas RCMB 0049001; experiment: In vitro antifungal assay (agar well); format: cell-based
Experimental: as §4

[16] = test system: Penicllium marneffeii RCMB 001034; experiment: In vitro antifungal assay (agar well); format: cell-based
Experimental: as §4

[17] = test system: Microsporum canis AUMC No. 14454; experiment: In vitro antifungal assay (agar well); format: cell-based
Experimental: as §4

[18] = test system: Penicillium aurantiogriseum IMI 89372; experiment: In vitro antifungal assay (agar well); format: cell-based
Experimental: as §4

[19] = test system: Candida tropicalis AUMC No. 9158; experiment: In vitro antifungal assay (agar well); format: cell-based; settings: 72 hours at 27° C.
Experimental: as §4

[20] = test system: Aspergillus niger AUMC No. 14408; experiment: In vitro antifungal assay (agar well); format: cell-based
Experimental: as §4

[21] = test system: Candida tropicalis RCMB 005004; experiment: In vitro antifungal assay (agar well); format: cell-based; settings: 72 hours at 27° C.
Experimental: as §4

[22] = test system: Trichophyton mentagrophytes AUMC No. 14492; experiment: In vitro antifungal assay (agar well); format: cell-based
Experimental: as §4

[23] = test system: Aspergillus flavus AUMC No. 1276; experiment: In vitro antifungal assay (agar well); format: cell-based
Experimental: as §4

[24] = test system: Fusarium moniliforme RCMB 001006; experiment: In vitro antifungal assay (agar well); format: cell-based
Experimental: as §4

[25] = test system: Aspergillus flavus RCMB 002002; experiment: In vitro antifungal assay (agar well); format: cell-based
Experimental: as §4

[26] = test system: Sporotlirix schenckii AUMC No. 2739; experiment: In vitro antifungal assay (agar well); format: cell-based
Experimental: as §4

[27] = test system: Penicillium marneffei AUMC No. 9370; experiment: In vitro antifungal assay (agar well); format: cell-based
Experimental: as §4

[28] = test system: C. albicans vaginal infection; experiment: Vaginal candidiasis mouse model; format: in vivo, mice; settings: for CD45-positive cells in vaginal tissue (IHC, semi-quantitative) / vaginal histology (H&E): topical into the vagina 5 mg/kg daily for seven days; for CXCR4 expression in the vaginal epithelial mucosa (IHC): treated for 7 days, vs C. albicans infected Model animals
Experimental: Standard histopathological sections stained with hematoxylin and eosin were performed. Immunohistochemistry was performed following the instructions of the antibodies manufacturer (Theiino Scientific, Waltman, MA, USA). The antibodies comprised CD45 and CXCR4. Mice vagina infected with C. albicans was used to evaluate the anticandidal actions of dabigatran. To help in induction of vaginal candidiasis, mice were immunocompromised by injection of 0.1 mg of β-estradiol in 10 μl of sesame oil 72 h and 24 h before vaginal infection for induction of estrus. Infection was done during the estrus phase by intravaginal dropping of the Candida blastoconidia. Each mouse received 3×10^6 blastospores into the vaginal cavity. Uninoculated control mice (the control group) were injected intravaginally with sterile saline. […] All drugs were given topically into the vagina at a dose rate of 5 mg/kg daily for seven days post-infection. On the seventh day, the mice were sacrificed, and blood and vaginal samples were collected. At ×400 magnification, five visual random fields were analyzed. An adopted procedure was used to assess the degree of infection and inflammation (Zhang, J. E., et al., “Feasibility of histological scoring and colony count for evaluating infective severity in mouse vaginal candidiasis,” Experimental Animals, 62(3): pp. 205-10 (2013)). The average scores of five fields were recorded.

[29] = test system: A. fumigatus systemic infection; experiment: Systemic aspergillosis mouse model; format: in vivo, mice; settings: for liver histopathology (H&E): vs infected animals; for heart histopathology (H&E): vs infected group; for serum levels of ALT, AST, uric acid, and creatinine: systemic A. fumigatus infection, day 7, compared with infected nontreated group (combination: also vs noninfected control)
Experimental: as §1, §2, §3
Serum samples from the systemic Aspergillus experiments discussed above were analyzed using known techniques to detect serum levels of ALT, AST, uric acid, and creatinine.

[30] = test system: Geotricurn candidum RCMB 026008; experiment: In vitro antifungal assay (agar well); format: cell-based, Geotricum candidum
Experimental: as §4

[31] = test system: 31 fungal strains; experiment: In vitro antifungal assays, all isolates; format: cell-based; settings: over the fungal strains tested
Experimental: as §4

[32] = test system: Syncephalastrurn racemosum RCMB 016001; experiment: In vitro antifungal assay (agar well); format: cell-based, Syncephalastrum racemosum
Experimental: as §4

[33] = test system: Penicillium expansurn RCMB 001001 IMI28169; experiment: In vitro antifungal assay (agar well); format: cell-based, Penicillium expansum
Experimental: as §4

[34] = immunocompromised mice, C. albicans i.v., 5 mg/kg oral daily for seven days
[35] = immunocompromised mice, A. fumigatus i.v., 5 mg/kg oral daily for seven days

Compound: CCCCCCOC(=O)NC(=N)c1ccc(NCc2nc3cc(C(=O)N(CCC(=O)OCC)c4ccccn4)ccc3n2C)cc1 [Dabigatran etexilate]
- kidney histopathology (H&E) [1, 34]: minor histological differences
- liver histopathology (H&E) [1, 34]: typical hepatic architecture with the presence of very few inflammatory cells, moderate degeneration, and no necrosis
- lung histopathology (H&E) [1, 34]: substantially improved
- protective effect against systemic C. albicans fungal infection ([1]; mice, 5 mg/kg oral daily for seven days): potent protective effect
- serum levels of ALT, AST, uric acid, and creatinine [1]: significantly decreased all serum markers
- MIC [2]: 64 µg/mL (≈ 102 µM)
- MIC [3]: 64 µg/mL (≈ 102 µM)
- MIC [4]: 32 µg/mL (≈ 51 µM)
- MIC [5]: 16 µg/mL (≈ 25.5 µM)
- MIC [6]: 32 µg/mL (≈ 51 µM)
- MIC [7]: 16 µg/mL (≈ 25.5 µM)
- MIC [8]: 128 µg/mL (≈ 204 µM)
- MIC [9]: 64 µg/mL (≈ 102 µM)
- MIC [10]: 32 µg/mL (≈ 51 µM)
- MIC [11]: 32 µg/mL (≈ 51 µM)
- MIC [12]: 128 µg/mL (≈ 204 µM)
- MIC [13]: 64 µg/mL (≈ 102 µM)
- MIC [14]: 64 µg/mL (≈ 102 µM)
- MIC [15]: 16 µg/mL (≈ 25.5 µM)
- MIC [16]: 256 µg/mL (≈ 408 µM)
- MIC [17]: 128 µg/mL (≈ 204 µM)
- MIC [18]: 32 µg/mL (≈ 51 µM)
- MIC [19]: 128 µg/mL (≈ 204 µM)
- MIC [20]: 128 µg/mL (≈ 204 µM)
- MIC [21]: 128 µg/mL (≈ 204 µM)
- MIC [22]: 32 µg/mL (≈ 51 µM)
- MIC [23]: 64 µg/mL (≈ 102 µM)
- MIC [24]: 16 µg/mL (≈ 25.5 µM)
- MIC [25]: 128 µg/mL (≈ 204 µM)
- MIC [26]: 16 µg/mL (≈ 25.5 µM)
- MIC [27]: 64 µg/mL (≈ 102 µM)
- CD4+ T cells in vaginal tissue (IHC, figure legends) ([28]; FIGS. 18 and 19, number / migration to lamina propria): dramatically decreased
- CD45-positive cells in vaginal tissue (IHC, semi-quantitative) [28]: Mild to moderate CD45-positive cells spread across the submucosa
- vaginal histology (H&E) [28]: considerable reduction in inflammation and injury to the vaginal epithelial mucosa
- CXCR4 expression in the vaginal epithelial mucosa (IHC) [28]: significant decrease
- kidney histopathology (H&E) [29, 35]: modest improvements
- lung histopathology (H&E), inflammation [29, 35]: decreased airspace areas because of red blood cells extravasation
- liver histopathology (H&E) [29, 35]: Comparable histopathological injuries
- heart histopathology (H&E) [29, 35]: comparable
- serum levels of ALT, AST, uric acid, and creatinine [29]: significantly decreased all serum markers
- MIC [30]: 32 µg/mL (≈ 51 µM)
- range of MIC values [31]: 8 to 256 µg/mL
- MIC [32]: 8 µg/mL (≈ 12.7 µM)
- MIC [33]: 128 µg/mL (≈ 204 µM)

Compound: OC(Cn1cncn1)(Cn1cncn1)c1ccc(F)cc1F [fluconazole]
- liver histopathology (H&E) [1, 34]: moderate inflammatory cell infiltration in the perivascular regions, mild sinusoidal congestion, and few apoptotic cells
- lung histopathology (H&E) [1, 34]: slightly ameliorated the lung damage
- serum levels of ALT, AST, uric acid, and creatinine [1]: significant decrease in ALT levels only
- CD45-positive cells in vaginal tissue (IHC, semi-quantitative) [28]: Mild to moderate CD45-positive cells spread across the submucosa
- vaginal histology (H&E) [28]: modest sub-epithelial inflammatory reaction
- CXCR4 expression in the vaginal epithelial mucosa (IHC) [28]: significant decrease
- liver histopathology (H&E) [29, 35]: Comparable histopathological injuries
- heart histopathology (H&E) [29, 35]: comparable
- serum levels of ALT, AST, uric acid, and creatinine [29]: significant decrease in all markers, except creatinine
